**Q.** Which melting point does the source give for `Cc1ccc(S(=O)(=O)OCC(O)(CC(C)(C)c2ccccc2)C(F)(F)F)cc1` (stereo not drawn) here?
**A.** 78 °C

**Q.** Which melting point does the source give for `Cc1cc(C)c(C(=O)c2ccccc2)c(OCC2CO2)c1` (stereo not drawn) here?
**A.** 72 to 74 °C

**Q.** For `CN1CCN(S(=O)(=O)c2cc(NC(=O)c3cnn4c(C(F)(F)F)cc(-c5ccc(C(F)(F)F)cc5)nc34)c(Cl)s2)CC1`, which melting point is on record?
**A.** 301 °C

**Q.** With `COc1cc(-c2ncnc(C)c2Cl)c(F)cc1Cl` as the compound, how does the melting point read?
**A.** 136 to 140 °C

**Q.** With `Nc1ncc(Cl)c(CN2CCCC2)c1Cl` as the compound, how does the melting point read?
**A.** 98 to 101 °C

**Q.** With `C=C(CC)c1cn(-c2c(Cl)cc(C(F)(F)F)cc2Cl)nc1C#N` as the compound, how does the melting point read?
**A.** 104 to 105 °C

**Q.** For `CCOC(=O)c1ccc(NC(=O)CC2c3ccccc3Sc3ccccc32)cc1`, which melting point is on record?
**A.** 184 to 186 °C

**Q.** For `O=C1NCC(=O)c2ncn(C3OC(COC(=O)c4ccccc4)C(OC(=O)c4ccccc4)C3OC(=O)c3ccccc3)c2N1` (stereo not drawn), which melting point is on record?
**A.** 252 °C

**Q.** Which melting point does the source give for `CCCCc1nc(Cl)c(C=O)n1Cc1ccc2oc(-c3ccccc3-c3nnn[nH]3)c(Br)c2c1` here?
**A.** 122 to 124 °C

**Q.** With `CNC(C)=C(C(C)=O)S(=O)(=O)NC(=O)Nc1nc(C)cc(C)n1` as the compound, how does the melting point read?
**A.** 192 °C

**Q.** Which melting point does the source give for `CCN1C(=O)C(C)(C)C(=O)N(C)c2cc(CN(CCn3ccc4oc(C)cc4c3=O)Cc3cnccn3)ccc21` here?
**A.** 129 to 131 °C

**Q.** With `Cc1cc2c(c(C)c1NCc1ccccc1)CC(C)(C)O2` as the compound, how does the melting point read?
**A.** 80 to 81 °C

**Q.** For `CCNC(=O)c1ccc(CN2CCN(c3ccncc3)CC2)cc1`, which melting point is on record?
**A.** 213 to 215 °C

**Q.** With `CC1CCN(c2ncc(Br)cc2C=O)C1` (stereo not drawn) as the compound, how does the melting point read?
**A.** 72 to 73 °C

**Q.** With `CC(=O)c1cn(S(=O)(=O)c2ccccc2)c2nccc(OCC3CCCCC3)c12` as the compound, how does the melting point read?
**A.** 138 to 140 °C

**Q.** For `CN1CCN(c2ccccc2C=C2SCCN(c3ccc(Cl)c(Cl)c3)C2=O)CC1`, which melting point is on record?
**A.** 155 to 157 °C

**Q.** With `O=c1[nH]ncc2[nH]c(-c3ccc(OC(F)F)c(OC4CC4)c3)c(Cl)c12` as the compound, how does the melting point read?
**A.** 281 to 283 °C

**Q.** With `COC1(N)C=CC(C(=O)c2cnc(Nc3ccccc3)s2)=CC1` (stereo not drawn) as the compound, how does the melting point read?
**A.** 222 °C

**Q.** With `NC1N=C(Cl)C=C(Cl)N1c1c([N+](=O)[O-])cc([N+](=O)[O-])cc1C(F)(F)F` (stereo not drawn) as the compound, how does the melting point read?
**A.** 170 to 173 °C

**Q.** With `O=C(Nc1ccc(Oc2ccnc(NCC3OCCO3)n2)c2ccccc12)c1cc(F)cc(N2CCCCC2)c1` as the compound, how does the melting point read?
**A.** 96 to 98 °C

**Q.** With `CC1OC(COc2ccc(Cl)cc2)OC1=O` (stereo not drawn) as the compound, how does the melting point read?
**A.** 53 to 55 °C

**Q.** For `CCCCC(=N)NC(=O)Nc1ccccc1Cl`, which melting point is on record?
**A.** 132 to 134 °C

**Q.** For `CC(Br)(CBr)CS(=O)(=O)Oc1ccc([N+](=O)[O-])cc1` (stereo not drawn), which melting point is on record?
**A.** 56 to 58 °C

**Q.** With `Cc1ncc2c(n1)N(CC(O)CO)C(=O)CO2` (stereo not drawn) as the compound, how does the melting point read?
**A.** 70 to 72 °C

**Q.** Which melting point does the source give for `COc1ccnc2[nH]cc(-c3ccnc(N)n3)c12` here?
**A.** > 210 °C

**Q.** Which melting point does the source give for `NCCCCCCCCCCN1CCN(CC(=O)N2c3ccccc3C(=O)Nc3cccnc32)CC1` here?
**A.** 95 to 97 °C

**Q.** Which melting point does the source give for `CCOC(=O)OC1CCN(C(=O)OCC)Cc2cc3ccccc3nc21` (stereo not drawn) here?
**A.** < 40 °C

**Q.** With `CC(C)CC(NC(=O)C(Cc1c[nH]cn1)NC(=O)C(CC(=O)NCCc1ccccc1)Cc1cccc2ccccc12)C(O)C(=O)OCc1ccccc1` (mixture of isomers) as the compound, how does the melting point read?
**A.** 81 to 86 °C

**Q.** For `CS(=O)(=O)Nc1ccccc1OC/C=C/CN1CCC(OC(c2ccccc2)c2cccs2)CC1` (stereo not drawn), which melting point is on record?
**A.** 114 to 117 °C

**Q.** Which melting point does the source give for `Cn1ccc(S(=O)(=O)NC(C)(C)C)c1C=O` here?
**A.** 102 to 103 °C

**Q.** With `COc1cc(CCc2ccccc2OCc2ccccc2)ncc1C(=O)O` as the compound, how does the melting point read?
**A.** 182 °C

**Q.** For `Cc1c(C)c2c(c(C)c1NC(=O)CC(C)(C)C)OC(C)(C)C2c1ccc(C(C)C)cc1` (stereo not drawn), which melting point is on record?
**A.** 128 to 129 °C

**Q.** With `Cc1ccccc1-n1c(CF)nc2ccc(N)cc2c1=O` as the compound, how does the melting point read?
**A.** 195 to 196 °C

**Q.** With `Cc1ccc(-n2nc(C(=O)NC(C)(C)C)c3c2C2CCC3C2)cc1` (stereo not drawn) as the compound, how does the melting point read?
**A.** 135 to 137 °C

**Q.** With `c1ccc2cc(CCNc3ncnc4ccccc34)ccc2c1` as the compound, how does the melting point read?
**A.** 172 to 174 °C

**Q.** With `COC(=O)C(COc1ccc(Cl)cc1C#N)Oc1ccccc1Cl` (stereo not drawn) as the compound, how does the melting point read?
**A.** 105 °C

**Q.** Which melting point does the source give for `Cc1c(NC(=O)CC(C)(C)C)cc2c(c1C)OC(C)(C)C2c1ccc(Br)cc1` (stereo not drawn) here?
**A.** 171 to 172 °C

**Q.** For `CCOC(=O)c1nccn1Cc1ccc(Cl)cc1N`, which melting point is on record?
**A.** 94 to 96 °C

From a melting point compilation (Tetko et al.; mined from patent text by program, amines drawn as free bases though some values may be those of a salt)
